What was measured:
[1] = system: skin scratch model rat; assay: Treatment of wound of skin scratch model DM rat; type: in vivo; conditions: applied daily on wound of left hindfoot; for time until wound healed: mecobalamin H1 group (wound without administration healed too), epalrestat M1 group (without administration healed on eighteenth day)
Protocol: 30 specific pathogen free (SPF) Sprague Dawley (SD) male rats aged 6-8 weeks old (weight 190 g or so) are used to construct as the DM rat model. Specifically, the STZ solution is prepared and used, and the prepared STZ solution is used within 10 minutes. The STZ solution is injected into left lower abdomens of the rats with a single dose of 55 milligrams per kilogram (mg/kg). After a week of the intraperitoneal injection of the STZ solution, the rats are in abrosia but can have water for 12 hours (h), thereafter blood glucose of the rats is detected, and the rats with blood glucose value above 12.6 […] are selected as the DM rat model. The 30 SPF SD male rats are all constructed as the DM rat model, 12 rats died before diabetic foot administration, and 2 rats died during the administration but not appearing effectiveness. Six DM model rats are selected for normal feeding for four weeks. After anesthesia, round skin wounds with each diameter of 5 mm are created on dorsal sides of hindfoots of the DM model rats to generate foot gangrene, as shown in FIG. 2. And then, the DM model rats continue to be fed regularly and the skin wounds of the DM model rats are observed every day. Therapeutic drug of mecobalamin (H1 group) is applied daily on the wound disposed on the left hindfoot of the skin scratch model rat, and then the wound of the model rat is observed. […] Therapeutic drug of epalrestat (M1 group) is applied daily on the wound disposed on the left hindfoot of the skin scratch model rat, and then the wound of the model rat is observed. After 13 days of continuous administration, the wound healed, and at the same time, the wound of the skin scratch model rat without administration healed on the eighteenth day. […] The hydrogels (T1 group, T2 group, T3 group, T4 group) are applied daily on the wounds disposed on the left hindfoots of four skin scratch model rats, and then the wounds of the 4 model rats are observed. […]

[2] = system: Staphylococcus aureus model rat; assay: Treatment of wound (foot gangrene) of Staphylococcus aureus model DM rat; type: in vivo; conditions: applied daily on wound of left hindfoot
Protocol: 30 specific pathogen free (SPF) Sprague Dawley (SD) male rats aged 6-8 weeks old (weight 190 g or so) are used to construct as the DM rat model. Specifically, the STZ solution is prepared and used, and the prepared STZ solution is used within 10 minutes. The STZ solution is injected into left lower abdomens of the rats with a single dose of 55 milligrams per kilogram (mg/kg). After a week of the intraperitoneal injection of the STZ solution, the rats are in abrosia but can have water for 12 hours (h), thereafter blood glucose of the rats is detected, and the rats with blood glucose value above 12.6 […] are selected as the DM rat model. The 30 SPF SD male rats are all constructed as the DM rat model, 12 rats died before diabetic foot administration, and 2 rats died during the administration but not appearing effectiveness. Six DM model rats are selected. At the third week, dorsal sides of hindfoots of the DM model rats are subcutaneously injected 10 μL of suspension containing more than […] Staphylococcus aureus, thereby obtaining a DM animal model with foot infection (also referred to as extremity infection). It can be seen from FIG. 1, on the sixth day, spontaneous foot gangrene occurs, and on the seventh day and eighth day, the foot gangrene is gradually obvious. […]

| Structure (SMILES) | time until wound healed [1] [days] | time of administration until wound / foot gangrene healed ([2]; mecobalamin H4 group (untreated wound healed as well), hydrogel T10 group (control healed after 7 days)) [days] | healing of treated wound compared with untreated wound / control group ([2]; mecobalamin H4 group, hydrogel T10 group, same area of foot gangrene) | effect on wound healing ([1]; H1, M1, T1-T4 groups) |
| --- | --- | --- | --- | --- |
| CC(/C=C1\SC(=S)N(CC(=O)O)C1=O)=C\c1ccccc1 [epalrestat, Epalrestat] | 13 | – | – | – |
| C/C1=C2/[N-][C@H]([C@H](CC(N)=O)[C@@]2(C)CCC(=O)NC[C@@H](C)OP(=O)([O-])O[C@H]2[C@@H](O)[C@@H](n3cnc4cc(C)c(C)cc43)O[C@@H]2CO)[C@]2(C)N=C(/C(C)=C3N=C(/C=C4N=C1[C@@H](CCC(N)=O)C\4(C)C)[C@@H](CCC(N)=O)[C@]\3(C)CC(N)=O)[C@@H](CCC(N)=O)[C@]2(C)CC(N)=O.[CH3-].[Co+3] [mecobalamin, Mecobalamin] | 11 | 5 | no significant difference | no significant promoting effect |

Source: US20240399032A1, “HYDROGEL FOR PROMOTING GROWTH OF MESENCHYMAL STEM CELLS, AND PREPARATION METHOD AND APPLICATION METHOD THEREOF” (The Fifth People's Hospital of Hainan Province, priority 2023, published 2024)
